{"source": "patent US20030166561A1", "about": "“Peptide” (priority 1999, published 2003)", "key": {"[1]": {"system": "isolated perfused rat pancreas", "assay": "Insulin secretion from glucose-stimulated isolated-perfused rat pancreas (infusion of preptin or anti-preptin γ-globulin)", "conditions": "75 nM preptin, 20 mM glucose; compared with control (0-added preptin); p=0.03", "experimental": "Pancreases from fasted adult male Wistar rats (300±25 g) were isolated and prepared (Grodsky and Fanska 1975). Pancreases were perfused with KHB supplemented with 4% dextran, 0.5% BSA, 3 mM arginine and 5.5 mM glucose. Perfusate was gassed with 95% 02:5% CO2 and infused by peristaltic pump (2.7 ml.min^−1 without re-circulation). Pancreases were perfused and equilibrated for 20 min prior to each 70 min perfusion experiment. 10 min into the experiment either carrier buffer (0.1% BSA in 0.9% NaCl), preptin dissolved in carrier buffer, anti-preptin Ig or non-immunised rabbit Ig (both diluted in carrier buffer) were introduced via a side-arm infusion (final concentrations in perfusate: 75 nM preptin; 35 μg.ml^−1 Ig). In addition, at 25 min, glucose was infused for 20 min (final concentration in perfusate: 20 mM). […]\nPancreases were perfused with KHB supplemented with 4% dextran, 0.5% BSA, 3 mM-arginine and 5.5 mM glucose (final concentrations). […] 10-min into the experiment either anti-preptin γ-globulin or non-immune rabbit γ-globulin were introduced via a side-arm infusion (final γ-globulin concentration in perfusate: 35 μg.ml^−1 in carrier buffer (0.1% BSA in 0.9% NaCl). In addition, at 25-min, glucose was infused for 20-min (measured final concentration in perfusate: 20 mM). Continuous 1-min fractions were collected on ice and assayed for insulin (RIA)."}, "βTC6-F7 cells": {"system": "βTC6-F7 cells", "assay": "Effect of preptin on glucose-stimulated insulin secretion from cultured βTC6-F7 cells", "type": "cell-based, murine", "conditions": "10 mM glucose", "experimental": "Insulin and amylin are known to modulate β-cell insulin secretion via presumed autocrine mechanisms. The effect of preptin on insulin secretion was therefore tested using a β-cell secretagogue protocol βTC6-F7 cells were subcultured at passage #52 into 24-well plates at 4×10^5 cells/well. They were grown for 3d in nDMEM to 80% confluence, then washed twice with KRB-HEPES. Stock preptin was serially diluted in incubation medium containing 10 mM D(+) glucose to yield final concentrations of 150, 75, 25, 5, 1 and 0.1 nM. Cells were then washed, and 1 ml/well of incubation medium containing 10 mM and-various final preptin concentrations was added to each well. Cells were incubated at 37° C. for 2 h, then medium removed. Cells were washed thrice with PBS, then lysed with 500 μl of lysis buffer. Incubation medium was centrifuged (16,000×g, 3 min) and the supernatant separated from pelleted debris. Incubation medium and lysates were then analyzed for insulin, preptin and protein as above."}}, "note": "Where no end group is shown, it is not given here.", "data": [{"sequence": "DVSTSQAVLPDDFPRYPVGKFFKFDTWRQSAGRL [synthetic rat preptin, 34 amino acid peptide, Asp69-Leu102 of rat proIGF-II E-peptide, chemically synthesized using Fmoc chemistry]", "values": [{"measurement": "enhancement of second phase of insulin secretion (areas-under-curve)", "setting": "[1]", "value": 30, "unit": "%"}, {"measurement": "preptin concentration at which effect on insulin secretion reached maximal", "setting": "βTC6-F7 cells", "value": 75, "unit": "nM"}, {"measurement": "glucose-stimulated secretion of insulin", "setting": "βTC6-F7 cells; 2 h, 37° C., compared to controls (0 added preptin)", "value": "enhanced"}, {"measurement": "preptin concentration at which significant effects on insulin secretion were detected", "setting": "βTC6-F7 cells; compared to controls (0 added preptin)", "value": "≥ 0.1", "unit": "nM"}]}]}
